Experimental data as given in PMC6152231, “Anti-Inflammatory Triterpene Glycosides from the Roots of Ilex dunniana Levl” (Molecules : A Journal of Synthetic Chemistry and Natural …, 2017).

Experiments:
BV2 microglial cells = assay: cytotoxicity, MTT assay; type: cell-based, mouse; details: for Cell Viability: 24 h, BV2 microglial cells, n = 3, in % (unit assumed)
Protocol: Cell viabilities were measured using the MTT assay. Briefly, BV2 microglial cells were seeded in 96-well plates at concentrations of 1 × 10^5 cells per well. After incubation for 2 h, the cells were incubated with compounds for 24 h and then washed with PBS three times. Following the washing step, 200 μL of RPMI 1640 medium containing 0.5 mg/mL MTT were added to each well, the cells were then incubated at 37 °C for another 4 h. Finally, the culture medium was removed, and the formazan crystal was dissolved by adding 150 μL of DMSO. Absorbances at 570 nm were measured using a microplate reader.

[1] = tested on: LPS-induced NO production in mouse BV2 microglial cells; assay: inhibition of LPS-induced NO production (Griess); type: cell-based; details: BV-2, LPS 1 μg/mL, 24 h, n = 3, read-out: IC50 against LPS-induced NO production
Protocol: BV2 microglial cells were maintained in RPMI1640 medium at 37 °C in 5% CO2. The cells were placed in 48-well plates and preincubated for 24 h, treated with tested triterpene glycosides dissolved in DMSO at various final concentrations (5.0, 10.0, 20.0, 40.0, 80.0 μM) in triplicate for 1 h, and continuously incubated with LPS (1 μg/mL) for 24 h. Dexamethasone (10^−6 M) was used as the positive control. From each well, the supernatants (100 μL) were mixed with an equal amount of Griess reagent at room temperature for 20 min. The concentration of NO2^− was measured for the amount of NO by a microplate reader at 570 nm, using sodium nitrite as the standard to calculate the concentration of the nitrite.

[2] = tested on: ear edema induced by croton oil in mice; assay: croton oil-induced ear edema in mice; type: in vivo; details: ICR male mice, dose 1.0 mg/kg, positive control
Protocol: On the basis of the inhibition of croton oil-induced ear edema in mice, the topical anti-inflammatory activity of the test compounds was evaluated. Animal experiments were performed in accordance to the Institutional Guidelines for Animal Care and Use of the Chinese Academy of Medical Sciences and Peking Union Medical College. The protocol was approved by the Committee on the Ethics of Animal Experiments of the Chinese Academy of Medical Sciences and Peking Union Medical College (permit pumber: 002973).The croton oil (Croton tiglium L., seed oil) was purchased from Sigma-Aldrich (St. Louis, MO, USA). In ICR male mice (18–20 g, n = 10 per group), croton oil (0.4 mg) was mixed with acetone (1 mL) to be applied to the left ear (10 μL each side) topically to induce ear edema. The animals were administered with candidate extracts (50 mg/kg) for 1 h, followed by treatment with croton oil for 4 h. […] Based on the weight difference between two plugs (8 mm diameter) of the treated (left) and untreated (right) ears, the edematous response was measured. The percentage reduction in edema in treated mice compared with control mice is calculated for the expression of anti-inflammatory activity.

SMILES	IC50 [1]	Cell Viability (BV2 microglial cells; 5.0 μM)	Cell Viability (BV2 microglial cells; 10.0 μM)	Cell Viability (BV2 microglial cells; 20.0 μM)	Cell Viability (BV2 microglial cells; 40.0 μM)	Cell Viability (BV2 microglial cells; 80.0 μM)	Edema Degree [2]	Inhibitation Rate ([2]; ear edema vs control group)	cytotoxic activity against microglial cell, in words (BV2 microglial cells; BV2 microglial cells in vitro)
CCCCOC(=O)C1OC(OC2CCC3(C)C(CCC4(C)C3CC=C3C5C(C(=O)OC6OC(CO)C(O)C(O)C6O)(CCC(C)C5(C)O)CCC34C)C2(C)C)C(O)C(OS(=O)(=O)O)C1O [Compound 2, 3β-(3-O-sulphonyl-6-O-n-butyl-D-glucuronopyranosyl)-19α-hydroxy-urs-12-en-28-oic acid 28-O-β-D-glucopyranoside]	12.3 ± 1.21 µM	98.32 ± 2.05	98.25 ± 1.87	98.16 ± 1.25	98.56 ± 1.37	98.26 ± 1.88			
C[C@H]1CC[C@]2(C(=O)O[C@@H]3O[C@H](CO)[C@@H](O)[C@H](O)[C@H]3O)CC[C@]3(C)C(=CCC4[C@@]5(C)CC[C@H](O[C@@H]6OC[C@H](O)[C@H](OS(=O)(=O)O)[C@H]6O)C(C)(C)C5CC[C@]43C)C2[C@]1(C)O (stereo partly drawn) [Compound 4, ilexpublesnin H]	33.5 ± 2.11 µM	99.36 ± 1.31	99.37 ± 1.21	99.67 ± 1.32	99.57 ± 1.53	99.33 ± 1.30			
C[C@H]1CC[C@]2(C(=O)O[C@@H]3O[C@H](CO)[C@@H](O)[C@H](O)[C@H]3O)CC[C@]3(C)C(=CCC4[C@@]5(C)CC[C@H](O[C@@H]6OC[C@@H](O)[C@H](O)[C@H]6OS(=O)(=O)O)C(C)(C)C5CC[C@]43C)C2[C@]1(C)O (stereo partly drawn) [Compound 5, ilexpublesnin I]	50.7 ± 3.25 µM	98.21 ± 1.93	99.33 ± 1.54	99.32 ± 1.32	99.21 ± 1.66	99.13 ± 1.28			
C=C1CC[C@]2(C(=O)O[C@@H]3O[C@H](CO)[C@@H](O)[C@H](O)[C@H]3O[C@@H]3O[C@@H](C)[C@H](O)[C@@H](O)[C@H]3O)CC[C@]3(C)C(=CC[C@@H]4[C@@]5(C)CC[C@H](O[C@@H]6OC[C@H](O)[C@H](O[C@@H]7O[C@H](CO)[C@@H](O)[C@H](O)[C@H]7O[C@@H]7O[C@H](CO)[C@@H](O)[C@H](O)[C@H]7O)[C@H]6O[C@@H]6O[C@@H](C)[C@H](O)[C@@H](O)[C@H]6O)C(C)(C)[C@@H]5CC[C@]43C)[C@@H]2[C@]1(C)O [Compound 7, ilekudinoside F]	55.2 ± 3.26 µM	101.55 ± 1.42	101.68 ± 1.36	101.76 ± 1.47	101.38 ± 1.58	101.68 ± 1.38			
C[C@@H]1CC[C@]2(C(=O)O[C@@H]3O[C@H](CO)[C@@H](O)[C@H](O)[C@H]3O)CC[C@]3(C)C(=CCC4[C@@]5(C)CC[C@H](OS(=O)(=O)[O-])[C@](C)(CO)C5CC[C@]43C)[C@@H]2[C@]1(C)O.[Na+] (stereo partly drawn) [Compound 6, ilexoside XXXV]	22.3 ± 2.23 µM	102.21 ± 1.03	102.28 ± 1.56	103.35 ± 1.58	103.26 ± 1.28	103.22 ± 1.89			

The remaining compounds from weak to strong by IC50 [1], led by results:

IC50 [1]	SMILES	Cell Viability (BV2 microglial cells; 5.0 μM)	Cell Viability (BV2 microglial cells; 10.0 μM)	Cell Viability (BV2 microglial cells; 20.0 μM)	Cell Viability (BV2 microglial cells; 40.0 μM)	Cell Viability (BV2 microglial cells; 80.0 μM)	Edema Degree [2]	Inhibitation Rate ([2]; ear edema vs control group)	cytotoxic activity against microglial cell, in words (BV2 microglial cells; BV2 microglial cells in vitro)
11.6 ± 0.89 µM	CCCCOC(=O)C1OC(OC2CCC3(C)C(CCC4(C)C3CC=C3C5C(C(=O)OC6OC(CO)C(O)C(O)C6O)(CCC(C)C5(C)O)CCC34C)C2(C)C)C(O)C(O)C1O [Compound 1, 3β-(6-O-n-butyl-D-glucuronopyranosyl)-19α-hydroxy-urs-12-en-28-oic acid 28-O-β-D-glucopyranoside]	99.74 ± 1.21	99.28 ± 1.32	99.35 ± 1.26	99.62 ± 1.89	99.70 ± 1.36			
9.7 ± 0.86 µM	C[C@@H]1CC[C@]2(C(=O)O[C@@H]3O[C@H](CO)[C@@H](O)[C@H](O)[C@H]3O)CC[C@]3(C)C(=CCC4[C@@]5(C)CC[C@H](O[C@@H]6O[C@H](CO)[C@@H](O)[C@H](O)[C@H]6O[C@@H]6O[C@H](CO)[C@@H](O[C@@H]7O[C@H](CO)[C@@H](O)[C@H](O)[C@H]7O)[C@H](O)[C@H]6O)C(C)(C)C5CC[C@]43C)[C@@H]2[C@]1(C)O (stereo partly drawn) [Compound 3, hylonoside II]	91.74 ± 1.11	90.28 ± 1.82	89.35 ± 1.35	88.62 ± 1.21	88.50 ± 1.32			showed cytotoxic activity
0.03 µM	C[C@@H]1C[C@H]2[C@@H]3CCC4=CC(=O)C=C[C@]4(C)[C@@]3(F)[C@@H](O)C[C@]2(C)[C@@]1(O)C(=O)CO [Dexamethasone, reference compound]	101.02 ± 1.01	99.98 ± 1.32	100.25 ± 1.67	101.37 ± 1.83	99.78 ± 1.63	5.80 ± 0.90 mg	71.0%	
